Results published in PMC4076524 (The Journal of General Physiology, 2014).
Positions count from the first letter of the chain named. Values belong to the compound of their own block, whether it stands above or below them.

What was measured:
[1] = system: olfactory CNG channel, threonine at C-terminal end of PBC mutated to alanine; details: threonine to alanine mutant; ref Altenhofen et al., 1991; cited from earlier work
[2] = biological target: T1, MlotiK1 CNB domain V288S/A352D mutant (Mesorhizobium japonicum, UniProt Q98GN8, A352D/V288S); assay: 8-NBD cAMP fluorescence competition binding assay; set-up: species or system Mesorhizobium loti; details: for coupling energy between V288S and A352D: double mutant cycle analysis of ligand binding
T1 sequence (Q98GN8 211-355 V288S/A352D limits assumed): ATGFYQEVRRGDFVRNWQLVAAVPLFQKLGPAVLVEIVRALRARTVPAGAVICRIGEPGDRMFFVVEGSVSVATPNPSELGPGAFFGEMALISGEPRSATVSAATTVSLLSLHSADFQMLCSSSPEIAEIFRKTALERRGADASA

[3] = biological target: T284S/V288S/A352D MlotiK1 potassium channel (Mesorhizobium japonicum, UniProt Q98GN8, A352D/T284S/V288S); assay: 86Rb+ uptake assay in proteoliposomes; type: biochemical, Mesorhizobium loti; details: Hill fit
Sequence of T284S/V288S/A352D MlotiK1 potassium channel (Q98GN8 whole entry T284S/V288S/A352D, the tested form may be a part): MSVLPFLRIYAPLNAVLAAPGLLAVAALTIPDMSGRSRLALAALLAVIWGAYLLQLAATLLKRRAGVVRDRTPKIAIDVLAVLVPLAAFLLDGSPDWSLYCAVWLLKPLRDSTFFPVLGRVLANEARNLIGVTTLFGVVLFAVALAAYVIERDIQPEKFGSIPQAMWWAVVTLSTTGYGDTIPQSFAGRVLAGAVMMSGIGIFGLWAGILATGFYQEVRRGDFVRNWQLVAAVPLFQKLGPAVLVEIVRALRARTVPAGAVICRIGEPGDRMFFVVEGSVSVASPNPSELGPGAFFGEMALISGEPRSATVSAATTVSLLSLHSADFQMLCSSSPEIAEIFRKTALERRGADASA

[4] = biological target: T2, MlotiK1 CNB domain T284S/V288S/A352D mutant (Mesorhizobium japonicum, UniProt Q98GN8, A352D/T284S/V288S); assay: 8-NBD cAMP fluorescence binding/competition assay; set-up: species or system Mesorhizobium loti; details: for coupling energy for the combination of T284S with V288S/A352D: mutant cycle analysis of ligand binding
T2 sequence (Q98GN8 211-355 T284S/V288S/A352D limits assumed): T1 sequence (Q98GN8 211-355 V288S/A352D limits assumed) with T74S

[5] = system: CNB β domain from the cGMP-dependent protein kinase I; details: ref Huang et al., 2014; cited from earlier work
[6] = biological target: MlotiK1 CNB domain A352D mutant (Mesorhizobium japonicum, UniProt Q98GN8, A352D); assay: 8-NBD cAMP fluorescence competition binding assay; set-up: species or system Mesorhizobium loti
Sequence of MlotiK1 CNB domain A352D mutant (Q98GN8 211-355 A352D limits assumed): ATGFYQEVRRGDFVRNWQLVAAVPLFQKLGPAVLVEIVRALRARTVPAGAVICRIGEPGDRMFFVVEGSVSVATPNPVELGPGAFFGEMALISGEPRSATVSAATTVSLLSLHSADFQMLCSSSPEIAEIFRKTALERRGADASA

[7] = system: bovine rod photoreceptor CNG channel; details: ref Altenhofen et al., 1991; cited from earlier work
[8] = biological target: MlotiK1 CNB domain V288S/A352S mutant (Mesorhizobium japonicum, UniProt Q98GN8, A352S/V288S); assay: 8-NBD cAMP fluorescence competition binding assay; set-up: species or system Mesorhizobium loti
Sequence of MlotiK1 CNB domain V288S/A352S mutant (Q98GN8 211-355 V288S/A352S limits assumed): as the sequence (Q98GN8 211-355 A352D limits assumed) above, with V78S, D142S counted along it

[9] = biological target: MlotiK1 CNB domain R348N mutant (Mesorhizobium japonicum, UniProt Q98GN8, R348N); assay: 8-NBD cAMP fluorescence competition binding assay; set-up: species or system Mesorhizobium loti; details: affinities (Kd), range stated over R348N, R348Q and R348K for cAMP and cGMP
Sequence of MlotiK1 CNB domain R348N mutant (Q98GN8 211-355 R348N limits assumed): as the sequence (Q98GN8 211-355 A352D limits assumed) above, with R138N, D142A counted along it

[10] = biological target: MlotiK1 CNB domain R348K mutant (Mesorhizobium japonicum, UniProt Q98GN8, R348K); assay: 8-NBD cAMP fluorescence competition binding assay; set-up: species or system Mesorhizobium loti; details: affinities (Kd), range stated over R348N, R348Q and R348K for cAMP and cGMP
Sequence of MlotiK1 CNB domain R348K mutant (Q98GN8 211-355 R348K limits assumed): as the sequence (Q98GN8 211-355 A352D limits assumed) above, with R138K, D142A counted along it

[11] = biological target: MlotiK1 CNB domain T284Q mutant (Mesorhizobium japonicum, UniProt Q98GN8, T284Q); assay: 8-NBD cAMP fluorescence competition binding assay; set-up: species or system Mesorhizobium loti
Sequence of MlotiK1 CNB domain T284Q mutant (Q98GN8 211-355 T284Q limits assumed): as the sequence (Q98GN8 211-355 A352D limits assumed) above, with T74Q, D142A counted along it

[12] = biological target: MlotiK1 CNB domain M299C mutant (Mesorhizobium japonicum, UniProt Q98GN8, M299C); assay: 8-NBD cAMP fluorescence competition binding assay; set-up: species or system Mesorhizobium loti
Sequence of MlotiK1 CNB domain M299C mutant (Q98GN8 211-355 M299C limits assumed): as the sequence (Q98GN8 211-355 A352D limits assumed) above, with M89C, D142A counted along it

[13] = biological target: MlotiK1 CNB domain T284N mutant (Mesorhizobium japonicum, UniProt Q98GN8, T284N); assay: 8-NBD cAMP fluorescence competition binding assay; set-up: species or system Mesorhizobium loti
Sequence of MlotiK1 CNB domain T284N mutant (Q98GN8 211-355 T284N limits assumed): as the sequence (Q98GN8 211-355 A352D limits assumed) above, with T74N, D142A counted along it

[14] = biological target: MlotiK1 CNB domain R348Y mutant (Mesorhizobium japonicum, UniProt Q98GN8, R348Y); assay: 8-NBD cAMP fluorescence competition binding assay; set-up: species or system Mesorhizobium loti; details: modified titration
Sequence of MlotiK1 CNB domain R348Y mutant (Q98GN8 211-355 R348Y limits assumed): as the sequence (Q98GN8 211-355 A352D limits assumed) above, with R138Y, D142A counted along it

[15] = biological target: MlotiK1 CNB domain M299Q mutant (Mesorhizobium japonicum, UniProt Q98GN8, M299Q); assay: 8-NBD cAMP fluorescence competition binding assay; set-up: species or system Mesorhizobium loti
Sequence of MlotiK1 CNB domain M299Q mutant (Q98GN8 211-355 M299Q limits assumed): as the sequence (Q98GN8 211-355 A352D limits assumed) above, with M89Q, D142A counted along it

[16] = biological target: MlotiK1 CNB domain R348Q mutant (Mesorhizobium japonicum, UniProt Q98GN8, R348Q); assay: 8-NBD cAMP fluorescence competition binding assay; set-up: species or system Mesorhizobium loti; details: affinities (Kd), range stated over R348N, R348Q and R348K for cAMP and cGMP
Sequence of MlotiK1 CNB domain R348Q mutant (Q98GN8 211-355 R348Q limits assumed): as the sequence (Q98GN8 211-355 A352D limits assumed) above, with R138Q, D142A counted along it

[17] = biological target: MlotiK1 CNB domain V282L mutant (Mesorhizobium japonicum, UniProt Q98GN8, V282L); assay: 8-NBD cAMP fluorescence competition binding assay; set-up: species or system Mesorhizobium loti
Sequence of MlotiK1 CNB domain V282L mutant (Q98GN8 211-355 V282L limits assumed): as the sequence (Q98GN8 211-355 A352D limits assumed) above, with V72L, D142A counted along it

[18] = system: bovine olfactory CNG channel; details: ref Altenhofen et al., 1991; cited from earlier work
[19] = biological target: MlotiK1 CNB domain T284S mutant (Mesorhizobium japonicum, UniProt Q98GN8, T284S); assay: 8-NBD cAMP fluorescence competition binding assay; set-up: species or system Mesorhizobium loti
Sequence of MlotiK1 CNB domain T284S mutant (Q98GN8 211-355 T284S limits assumed): as the sequence (Q98GN8 211-355 A352D limits assumed) above, with T74S, D142A counted along it

[20] = biological target: MlotiK1 CNB domain A352S mutant (Mesorhizobium japonicum, UniProt Q98GN8, A352S); assay: 8-NBD cAMP fluorescence competition binding assay; set-up: species or system Mesorhizobium loti; details: competition with 50 nM 8-NBD cAMP, constant ligand, variable protein, room temperature, pH 7.5
Sequence of MlotiK1 CNB domain A352S mutant (Q98GN8 211-355 A352S limits assumed): as the sequence (Q98GN8 211-355 A352D limits assumed) above, with D142S counted along it

[21] = biological target: MlotiK1 CNB domain R348A mutant (Mesorhizobium japonicum, UniProt Q98GN8, R348A); assay: 8-NBD cAMP fluorescence competition binding assay; set-up: species or system Mesorhizobium loti; details: modified titration
Sequence of MlotiK1 CNB domain R348A mutant (Q98GN8 211-355 R348A limits assumed): as the sequence (Q98GN8 211-355 A352D limits assumed) above, with R138A, D142A counted along it

[22] = biological target: MlotiK1 CNB domain V288I mutant (Mesorhizobium japonicum, UniProt Q98GN8, V288I); assay: 8-NBD cAMP fluorescence competition binding assay; set-up: species or system Mesorhizobium loti
Sequence of MlotiK1 CNB domain V288I mutant (Q98GN8 211-355 V288I limits assumed): as the sequence (Q98GN8 211-355 A352D limits assumed) above, with V78I, D142A counted along it

[23] = biological target: MlotiK1 CNB domain V288L mutant (Mesorhizobium japonicum, UniProt Q98GN8, V288L); assay: 8-NBD cAMP fluorescence competition binding assay; set-up: species or system Mesorhizobium loti
Sequence of MlotiK1 CNB domain V288L mutant (Q98GN8 211-355 V288L limits assumed): as the sequence (Q98GN8 211-355 A352D limits assumed) above, with V78L, D142A counted along it

[24] = biological target: MlotiK1 CNB domain V288A mutant (Mesorhizobium japonicum, UniProt Q98GN8, V288A); assay: 8-NBD cAMP fluorescence competition binding assay; set-up: species or system Mesorhizobium loti
Sequence of MlotiK1 CNB domain V288A mutant (Q98GN8 211-355 V288A limits assumed): as the sequence (Q98GN8 211-355 A352D limits assumed) above, with V78A, D142A counted along it

[25] = biological target: MlotiK1 CNB domain V288S mutant (Mesorhizobium japonicum, UniProt Q98GN8, V288S); assay: 8-NBD cAMP fluorescence competition binding assay; set-up: species or system Mesorhizobium loti
Sequence of MlotiK1 CNB domain V288S mutant (Q98GN8 211-355 V288S limits assumed): as the sequence (Q98GN8 211-355 A352D limits assumed) above, with V78S, D142A counted along it

[26] = biological target: MlotiK1 CNB domain wild type (Mesorhizobium japonicum, UniProt Q98GN8); assay: 8-NBD cAMP fluorescence binding/competition assay; set-up: species or system Mesorhizobium loti
Sequence of MlotiK1 CNB domain wild type (Q98GN8 211-355 limits assumed): as the sequence (Q98GN8 211-355 A352D limits assumed) above, with D142A counted along it

coupling energy between V288S and A352D [2]: -0.78 ± 0.18 kcal/mol
Hill coefficient [3]: 0.84
coupling energy for the combination of T284S with V288S/A352D [4]: 0.14 ± 0.19 kcal/mol
Compound: Nc1ncnc2c1ncn2[C@@H]1O[C@@H]2COP(=O)(O)O[C@H]2[C@H]1O [cAMP]
preference for cAMP [1]: 3.3 fold

Compound: Nc1nc2c(ncn2[C@@H]2O[C@@H]3COP(=O)(O)O[C@H]3[C@H]2O)c(=O)[nH]1 [cGMP]
selectivity for cGMP over cAMP [5]: ~250 times
Kd [6]: 850 ± 121 nM
sensitivity to cGMP relative to cAMP (ratio of the K1/2 for channel activation) [7]: ~40 times
Kd [2]: 351 ± 95 nM
coupling energy between V288S and A352D [2]: -0.64 ± 0.20 kcal/mol
change in ligand-binding energy by V288S when combined with A352D ([2]; mutant cycle, relative to A352D): -0.52 ± 0.18 kcal/mol
Kd [8]: 749 ± 75 nM
Kd [9]: 16000 to 46000 nM
Kd [10]: 16000 to 46000 nM
Kd [11]: 6950 nM
Kd [12]: 2940 nM
Kd [13]: 6560 nM
Kd [14]: 33000 ± 4800 nM
Kd [15]: 11600 nM
Kd [16]: 16000 to 46000 nM
Hill coefficient [3]: 1.3
Kd [17]: 8950 nM
sensitivity to cGMP relative to cAMP (ratio of the K1/2 for channel activation) [18]: ~40 times
Kd [19]: 2980 nM
Kd [20]: 727 ± 160 nM
Kd [4]: 336 ± 126 nM
coupling energy for the combination of T284S with V288S/A352D [4]: -0.34 ± 0.29 kcal/mol
Kd [21]: 39000 ± 2500 nM
Kd [22]: 797 ± 118 nM
Kd [23]: 996 ± 163 nM
Kd [24]: 2540 nM
Kd [25]: 2100 nM
change in ligand-binding energy by V288S alone ([25]; mutant cycle, relative to wild type): 0.12 ± 0.10 kcal/mol
Kd [26]: 1730 nM

Compound: Nc1ncnc2c1nc(SCCNc1ccc([N+](=O)[O-])c3nonc13)n2[C@@H]1O[C@@H]2COP(=O)(O)O[C@H]2[C@H]1O [8-NBD cAMP]
Kd [4]: 2000 nM
Kd [26]: 171 ± 20 nM
